Patent publication US20120225097A1, “PIPERAZINECARBOXAMIDE DERIVATIVE USEFUL AS A MODULATOR OF FATTY ACID AMIDE HYDROLASE (FAAH)” (priority 2009, published 2012)
Where a name gives a salt, the structure may show the parent alone.

Molecular target: T1, rat FAAH (Rattus norvegicus, UniProt P97612)
T1 construct: expressed in transfected cells
T1 sequence (P97612 1-579): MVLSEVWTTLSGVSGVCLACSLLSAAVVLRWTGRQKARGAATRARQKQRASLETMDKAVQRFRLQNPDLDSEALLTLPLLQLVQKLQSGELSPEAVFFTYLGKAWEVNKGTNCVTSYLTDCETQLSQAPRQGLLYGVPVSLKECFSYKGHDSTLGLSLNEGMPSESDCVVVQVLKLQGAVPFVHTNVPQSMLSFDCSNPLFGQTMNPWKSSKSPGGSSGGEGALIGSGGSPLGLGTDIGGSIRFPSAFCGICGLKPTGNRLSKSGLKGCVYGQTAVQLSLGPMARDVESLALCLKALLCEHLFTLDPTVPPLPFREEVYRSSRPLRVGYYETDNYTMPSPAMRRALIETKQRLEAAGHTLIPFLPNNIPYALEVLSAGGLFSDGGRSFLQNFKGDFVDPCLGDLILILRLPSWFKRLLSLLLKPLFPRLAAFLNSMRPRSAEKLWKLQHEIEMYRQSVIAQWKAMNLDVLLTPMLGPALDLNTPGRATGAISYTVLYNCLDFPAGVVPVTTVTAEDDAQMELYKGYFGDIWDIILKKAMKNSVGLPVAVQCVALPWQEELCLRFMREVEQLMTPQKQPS
Test: Assay Method 2: FAAH assay, anandamide hydrolysis in cell homogenate
Type: biochemical
Conditions: for IC50: average value (standard error of the mean in parenthesis), 3H-AEA 80 nM, 1 h rt
Method: A. Transfection of Cells with Rat FAAH
A 10-cm tissue culture dish with a confluent monolayer of SK-N-MC cells was split 2 d prior to transfection. Using sterile technique, the media was removed and the cells were detached from the dish by the addition of trypsin. One fifth of the cells were then placed onto a new 10-cm dish. Cells were grown in a 37° C. incubator with 5% CO2 in Minimal Essential Media Eagle containing 10% Fetal Bovine Serum. After 2 d, cells were approximately 80% confluent. These cells were removed from the dish with trypsin and pelleted in a clinical centrifuge. The pellet was re-suspended in 400 μL complete media and transferred to an electroporation cuvette with a 0.4 cm gap between the electrodes. Supercoiled rat FAAH cDNA (1 μg), corresponding to NCBI accession NM_024132, was added to the cells and mixed. The voltage for the electroporation was set at 0.25 kV, and the capacitance was set at 960 μF. After electroporation, the cells were diluted into complete media (10 mL) and plated onto four 10-cm dishes. Because of the variability in the efficiency of electroporation, four different concentrations of cells were plated. The ratios used were 1:20, 1:10, and 1:5, with the remainder of the cells being added to the fourth dish. The cells were allowed to recover for 24 h before adding the selection media (complete media with 600 μg/mL G418). After 10 d, dishes were analyzed for surviving colonies of cells. Dishes with well-isolated colonies were used. Cells from individual colonies were isolated and tested.
T84 frozen cell pellets or transfected SK-N-MC cells (contents of 1×15 cm culture dishes) were homogenized in 50 mL of FAAH assay buffer (125 mM Tris, 1 mM EDTA, 0.2% Glycerol, 0.02% Triton X-100, 0.4 mM Hepes, pH 9). The assay mixture consisted of 50 μL of the cell homogenate, 10 μL of the test compound, and 40 μL of anandamide [1-^3H-ethanolamine] (^3H-AEA, Perkin-Elmer, 10.3 Ci/mmol), which was added last, for a final tracer concentration of 80 nM. The reaction mixture was incubated at rt for 1 h. During the incubation, 96-well Multiscreen filter plates (catalog #MAFCNOB50; Millipore, Bedford, Mass., USA) were loaded with 25 μL of activated charcoal (Multiscreen column loader, catalog #MACL09625, Millipore) and washed once with 100 μL of MeOH. Also during the incubation, 96-well DYNEX MicroLite plates (catalog #NL510410) were loaded with 100 μL of MicroScint40 (catalog #6013641, Packard Bioscience, Meriden, Conn., USA). After the 1 h incubation, 60 μL of the reaction mixture were transferred to the charcoal plates, which were then assembled on top of the DYNEX plates using Centrifuge Alignment Frames (catalog #MACF09604, Millipore). […]

Row | Structure (SMILES) | IC50 [nM] | times more potent in in vitro assays using rat FAAH enzyme (vs 4-chlorophenyl comparator) (relative to 4-({3-[(4-chlorophenyl)oxy]phenyl}methyl)-N-pyridin-3-ylpiperazine-1-carboxamide)
1 | O=C(Nc1cccnc1)N1CCN(Cc2cccc(Oc3ccc(Cl)cc3)c2)CC1 [4-({3-[(4-Chlorophenyl)oxy]phenyl}methyl)-N-pyridin-3-ylpiperazine-1-carboxamide] | 65 | –
2 | O=C(Nc1cccnc1)N1CCN(Cc2cccc(Oc3ccc(Br)cc3)c2)CC1 [4-[3-(4-Bromophenoxy)benzyl]-N-pyridin-3-ylpiperazine-1-carboxamide] | 22 | –
3 | O=C(Nc1cccnc1)N1CCN(Cc2cccc(Oc3ccc(C(F)(F)F)cc3)c2)CC1 [Example 1, N-Pyridin-3-yl-4-{3-[4-(trifluoromethyl)phenoxy]benzyl}piperazine-1-carboxamide, bis-hydrochloride dihydrate] | 18 | about 3.5 times
